Patent US11485737B2, “Diaryl substituted 5,5-fused ring compounds as C5aR inhibitors” (CHEMOCENTRYX, INC., priority 2017, dated 2022)

Target: T1, C5aR (Homo sapiens, UniProt P21730)
T1 construct: U937 cells are a monocytic cell line which express C5aR; host or cells: U937 cells (cAMP-treated overnight)
T1 sequence (P21730 1-350): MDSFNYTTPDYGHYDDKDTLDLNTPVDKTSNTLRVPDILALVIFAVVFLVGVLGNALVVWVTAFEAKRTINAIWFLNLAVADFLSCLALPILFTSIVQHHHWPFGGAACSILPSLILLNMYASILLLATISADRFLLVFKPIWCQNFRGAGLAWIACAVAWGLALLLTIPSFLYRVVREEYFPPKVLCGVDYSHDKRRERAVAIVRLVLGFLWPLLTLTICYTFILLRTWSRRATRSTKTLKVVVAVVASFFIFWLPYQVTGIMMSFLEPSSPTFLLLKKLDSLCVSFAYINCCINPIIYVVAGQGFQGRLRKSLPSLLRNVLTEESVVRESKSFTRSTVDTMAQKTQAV
Assay: Chemotaxis assay using U937 cells (C5a-induced migration)
Assay type: cell-based
Conditions: chemotaxis (migration) of U937 cells towards C5a; read-out: Mig IC50
Method: U937 cells are a monocytic cell line which express C5aR, and are available from ATCC (VA). These cells were cultured as a suspension in RPMI-1640 medium supplemented with 2 mM L-glutamine, 1.5 g/L sodium bicarbonate, 4.5 g/L glucose, 10 mM HEPES, 1 mM sodium pyruvate, and 10% FBS. Cells were grown under 5% CO2/95% air, 100% humidity at 37° C. and subcultured twice weekly at 1:6 (cells were cultured at a density range of 1×10^5 to 2×10^6 cells/mL) and harvested at 1×10^6 cells/mL. Prior to assay, cells are treated overnight with 0.5 mM of cyclic AMP (Sigma, OH) and washed once prior to use. cAMP treated U937 cells can be used in C5aR ligand binding and functional assays.
Optionally, compounds may be further assayed for their ability to inhibit chemotaxis in cells. Chemotaxis assays are performed using 5 μm pore polycarbonate, polyvinylpyrrolidone-coated filters in 96-well chemotaxis chambers (Neuroprobe; Gaithersburg, Md.) using chemotaxis buffer (Hank's balanced salt solution (HBSS) and 1% FBS). C5aR ligands (i.e., C5a, R&D Systems; Minneapolis, Minn.) are use to evaluate compound mediated inhibition of C5aR mediated migration. Other chemokines (i.e., SDF-1α; R&D Systems; Minneapolis, Minn.) are used as specificity controls. The lower chamber is loaded with 29 μl of chemokine (i.e., 0.03 nM C5a) and varying amounts of compound; the top chamber contains 100,000 U937 or neutrophil cells in 20 μl. The chambers are incubated 1.5 hours at 37° C., and the number of cells in the lower chamber quantified either by direct cell counts in five high powered fields per well or by the CyQuant assay (Molecular Probes), a fluorescent dye method that measures nucleic acid content and microscopic observation.
The compounds in Table 1, below, were prepared using the methods described above. Characterization data is provided for each compound listed. Activity is provided as follows for the chemotaxis assay using U937 cells as described herein (Example 7): +, 500 nM<IC50; ++, 50 nM<IC50<500 nM; +++, 5 nM<IC50<50 nM; and ++++, IC50<5 nM.

SMILES	IC50 [µM]
CCc1cccc(CC)c1-n1nc2c(c1-c1ccc(C(N)=O)c(F)c1)CN(Cc1ccc(C(F)(F)F)cc1C(F)(F)F)C2(C)C [Compound 1.005]	> 0.5
Cc1cccc(C)c1-n1nc2c(c1-c1ccc(C(N)=O)cc1)CN(c1ccc(C(F)(F)F)c(Cl)c1)C2=O [Compound 1.020]	> 0.5
Cc1ccc(C(C)(C)C)cc1N1Cc2c(nn(-c3c(C)cccc3C)c2-c2ccc(NC(N)=O)cc2)C1=O [Compound 1.021]	> 0.5
Cc1cc(-c2c3c(nn2-c2c(C)cccc2C)CN(c2cc(C(C)(C)C)ccc2C)C3=O)ccc1C(N)=O [Compound 1.025]	> 0.5
Cc1cccc(C)c1-n1nc2c(c1-c1ccc(C(N)=O)cc1)CN(c1cccc(C(C)(C)C)n1)C2 [Compound 1.027]	> 0.5
Cc1cccc(C)c1-n1nc2c(c1-c1ccc(C(N)=O)cc1)CN(c1cc(C(C)(C)C)ccn1)C2 [Compound 1.028]	> 0.5
Cc1cccc(C)c1-n1nc2c(c1-c1ccc(NC(N)=O)cc1)CN(C(=O)OC(C)(C)C)C2 [Compound 1.029]	> 0.5
COc1cccc(C)c1-n1nc2c(c1-c1ccc(NC(N)=O)cc1)CN(C(=O)NC(C)(C)C)C2 [Compound 1.032]	> 0.5
Cc1cccc(C)c1-n1nc2c(c1-c1ccc(C(N)=O)cc1)CN(C(=O)NC(C)(C)C)C2 [Compound 1.033]	> 0.5
Cc1cccc(C)c1-n1nc2c(c1-c1ccc(C(N)=O)cc1)CN(C(=O)c1ccc(C(C)(C)C)cc1)C2 [Compound 1.036]	> 0.5
Cc1cccc(C)c1-n1nc2c(c1-c1ccc(C(N)=O)cc1)CN(C(=O)c1ccccc1)C2 [Compound 1.037]	> 0.5
Cc1cccc(C)c1-n1nc2c(c1-c1ccc(C(N)=O)cc1)CN(C(=O)OC(C)(C)C)C2 [Compound 1.038]	> 0.5
Cc1ccc(N2Cc3nn(-c4c(C)cccc4C)c(-c4ccc(C(N)=O)cc4)c3C2)cc1C(F)(F)F [Compound 1.039]	> 0.5
Cc1ccc(C(C)(C)C)cc1N1Cc2nn(-c3c(C)cccc3C)c(-c3ccc(C(=O)NC4CCCC4)cc3)c2C1 [Compound 1.042]	> 0.5
Cc1ccc(C(C)(C)C)cc1N1Cc2nn(-c3c(C)cccc3C)c(-c3ccc(C(=O)O)cc3)c2C1 [Compound 1.043]	> 0.5
COc1cccc(C)c1-n1nc2c(c1-c1ccc(NC(N)=O)cc1)CN(c1ccccc1C(C)C)C2 [Compound 1.044]	0.05 to 0.5
Cc1cccc(C)c1-n1nc2c(c1-c1ccc(NC(N)=O)cc1)CN(c1ccccc1C(C)C)C2 [Compound 1.045]	0.05 to 0.5
Cc1cccc(C)c1-n1nc2c(c1-c1ccc(N)cc1)CN(c1ccccc1C(C)C)C2 [Compound 1.046]	0.05 to 0.5
Cc1ccc(C(C)(C)C)cc1N1Cc2nn(-c3c(C)cccc3C)c(-c3ccc(C(C)(C)O)cc3)c2C1 [Compound 1.048]	0.05 to 0.5
Cc1ccc(C(C)(C)C)cc1N1Cc2nn(-c3c(C)cccc3C)c(-c3ccc(NC(N)=O)cc3)c2C1 [Compound 1.049]	0.05 to 0.5

The next lines start with the values.

IC50 [µM]	SMILES
< 0.005	CCc1cccc(CC)c1-n1nc2c(c1-c1cc(Cl)c(NC(N)=O)cc1F)CN(Cc1ccc(C(F)(F)F)cc1C(F)(F)F)C2(C)C [Compound 1.001, 1-(4-(5-(2,4-bis(trifluoromethyl)benzyl)-2-(2,6-diethylphenyl)-6,6-dimethyl-2,4,5,6-tetrahydropyrrolo[3,4-c]pyrazol-3-yl)-2-chloro-5-fluorophenyl)urea]
< 0.005	CCc1cccc(CC)c1-n1nc2c(c1-c1cc(OC)c(NC(N)=O)cc1F)CN(Cc1ccc(C(F)(F)F)cc1C(F)(F)F)C2(C)C [Compound 1.002]
< 0.005	CCc1cccc(CC)c1-n1nc2c(c1-c1cc(C)c(NC(N)=O)cc1F)CN(Cc1ccc(C(F)(F)F)cc1C(F)(F)F)C2(C)C [Compound 1.003]
< 0.005	CCc1cccc(CC)c1-n1nc2c(c1-c1cc(F)c(NC(N)=O)cc1F)CN(CC(C)(C)C(F)(F)F)C2(C)C [Compound 1.004, 1-(4-(2-(2,6-diethylphenyl)-6,6-dimethyl-5-(3,3,3-trifluoro-2,2-dimethylpropyl)-2,4,5,6-tetrahydropyrrolo[3,4-c]pyrazol-3-yl)-2,5-difluorophenyl)urea]
< 0.005	Cc1cccc(C)c1-n1nc2c(c1-c1cc(F)c(NC(N)=O)cc1F)CN(Cc1ccccc1C(F)(F)F)C2(C)C [Compound 1.006]
< 0.005	Cc1cccc(C)c1-n1nc2c(c1-c1cc(F)c(NC(N)=O)cc1F)CN(Cc1ccc(C(F)(F)F)cc1C(F)(F)F)C2(C)C [Compound 1.007]
0.005 to 0.05	CCc1cccc(CC)c1-n1nc2c(c1-c1cc(F)c(NC(N)=O)cc1C)CN(CC1(C)COC1)C2(C)C [Compound 1.008]
< 0.005	CCc1cccc(CC)c1-n1nc2c(c1-c1cc(F)c(NC(N)=O)cc1C)CN(Cc1ccccc1C(F)(F)F)C2(C)C [Compound 1.009]
< 0.005	CCc1cccc(CC)c1-n1nc2c(c1-c1cc(F)c(NC(N)=O)cc1C)CN(Cc1ccc(C(F)(F)F)cc1C(F)(F)F)C2(C)C [Compound 1.010]
< 0.005	CCc1cccc(CC)c1-n1nc2c(c1-c1cc(F)c(NC(N)=O)cc1F)CN(Cc1cc(Cl)ccc1Cl)C2(C)C [Compound 1.011]
< 0.005	CCc1cccc(CC)c1-n1nc2c(c1-c1cc(F)c(NC(N)=O)cc1F)CN(C(=O)CC(C)C)C2(C)C [Compound 1.012]
< 0.005	CCc1cccc(CC)c1-n1nc2c(c1-c1cc(F)c(NC(N)=O)cc1F)CN(C(=O)C(C)CC)C2(C)C (stereo not drawn) [Compound 1.013]
< 0.005	CCc1cccc(CC)c1-n1nc2c(c1-c1cc(F)c(NC(N)=O)cc1F)CN(Cc1ccccc1C(F)(F)F)C2(C)C [Compound 1.014]
< 0.005	CCc1cccc(CC)c1-n1nc2c(c1-c1cc(F)c(NC(N)=O)cc1F)CN(CC1CCOCC1)C2(C)C [Compound 1.015]
0.005 to 0.05	CCc1cccc(CC)c1-n1nc2c(c1-c1cc(F)c(NC(N)=O)cc1F)CN(C(=O)C(C)C)C2(C)C [Compound 1.016, 1-(4-(2-(2,6-diethylphenyl)-5-isobutyryl-6,6-dimethyl-2,4,5,6-tetrahydropyrrolo[3,4-c]pyrazol-3-yl)-2,5-difluorophenyl)urea]
< 0.005	CCc1cccc(CC)c1-n1nc2c(c1-c1cc(F)c(NC(N)=O)cc1F)CN(Cc1cc(C(F)(F)F)ccc1C(F)(F)F)C2(C)C [Compound 1.017]
< 0.005	CCc1cccc(CC)c1-n1nc2c(c1-c1cc(F)c(NC(N)=O)cc1F)CN(Cc1ccc(C(F)(F)F)cc1C(F)(F)F)C2(C)C [Compound 1.018]
0.05 to 0.5	Cc1cccc(C)c1-n1nc2c(c1-c1ccc(NC(N)=O)cc1)CN(CC(C)(C)C)C2(C)C [Compound 1.019]
0.05 to 0.5	Cc1cccc(C)c1-n1nc2c(c1-c1ccc(NC(N)=O)cc1)CN(CC(C)(C)C)C2 [Compound 1.022]
0.05 to 0.5	Cc1cc(C(N)=O)ccc1-c1c2c(nn1-c1c(C)cccc1C)C(=O)N(c1cc(C(C)(C)C)ccc1C)C2 [Compound 1.023]
0.005 to 0.05	Cc1cc(-c2c3c(nn2-c2c(C)cccc2C)C(=O)N(c2cc(C(C)(C)C)ccc2C)C3)ccc1C(N)=O [Compound 1.024]
0.005 to 0.05	Cc1ccc(C(C)(C)C)cc1N1Cc2c(nn(-c3c(C)cccc3C)c2-c2ccc(C(N)=O)cc2)C1=O [Compound 1.030]
0.005 to 0.05	Cc1ccc(C(C)(C)C)cc1N1Cc2nn(-c3c(C)cccc3C)c(-c3ccc(C(N)=O)cc3)c2C1=O [Compound 1.031]
0.05 to 0.5	Cc1cccc(C)c1-n1nc2c(c1-c1ccc(C(N)=O)cc1)CN(c1ccc(F)cc1C(C)C)C2 [Compound 1.034]
0.005 to 0.05	Cc1cc(F)c(C(C)C)cc1N1Cc2nn(-c3c(C)cccc3C)c(-c3ccc(C(N)=O)cc3)c2C1 [Compound 1.035, 4-(2-(2,6-dimethylphenyl)-5-(4-fluoro-5-isopropyl-2-methylphenyl)-2,4,5,6-tetrahydropyrrolo[3,4-c]pyrazol-3-yl)benzamide]
0.05 to 0.5	Cc1cc(C(N)=O)ccc1-c1c2c(nn1-c1c(C)cccc1C)CN(c1cc(C(C)(C)C)ccc1C)C2 [Compound 1.040]
< 0.005	Cc1ccc(C(C)(C)C)cc1N1Cc2nn(-c3c(C)cccc3OCC(C)C)c(-c3ccc(C(N)=O)cc3)c2C1 [Compound 1.041]
< 0.005	Cc1ccc(C(C)(C)C)cc1N1Cc2nn(-c3c(C)cccc3C)c(-c3ccc(C(N)=O)cc3)c2C1 [Compound 1.047]
